A short description of the series: Human HepG2 cell viability assay in 384 well format. It counts as toxicity, cell-based. The arrangement: dose 125 nL, time 70.5 hour; cytotoxicity at 70.5 h: concentration not given beside the values. The note with it: HepG2 cells, read-out: Inhibition.

In the case of `Cc1ccc(NC(=O)c2ccc(=O)n(CC(=O)Nc3nccs3)n2)cc1`, the cytotoxicity at 70.5 h was found to be 23.1%.
The value for `CCOCc1nc(N2CCOCC2)sc1C(=O)NCc1ccco1` was -6.85%; that for `CCOCCCNC(=O)C1(C)CCC(=O)N1Cc1ccccc1F` (centres undefined) was 0.95%; that for `O=C1N(Cc2ccncc2)CCC12CCCNC2` (centres undefined) was -4.76%.
Consider `CC(C)NC(=O)N1CC[C@@H]2[C@@H]1CC(=O)N2Cc1cccnc1`, for which the cytotoxicity at 70.5 h is -13.6%.
The value for `O=C(C1CCOC1)N1CCC2(CCNCC2)C1` (centres undefined) was 27.5%.
The value for `CCOC(=O)CN1CCC2(CCCN(CCOc3ccccc3)C2)C1` (centres undefined) was -16%; that for `Cc1ccccc1C(=O)N1CCC2(CCC(C(=O)NCC3CC3)O2)CC1` (centres undefined) was -18.9%.
The value for `CN1C(=O)CCCC12CCCN(C(=O)c1cc(F)cc(F)c1)C2` (centres undefined) was -9.55%; that for `CN1C(=O)CCCC12CCCN(C(=O)c1ccoc1)C2` (centres undefined) was -10.6%; that for `O=C(NCC1CC1)C1CCC2(CCN(C(=O)c3cnccn3)CC2)O1` (centres undefined) was 9.2%.
As to `CC(C)N1[C@@H](C(=O)NCC2CC2)C[C@@H]2CN(Cc3ccco3)C[C@@H]21`, the cytotoxicity at 70.5 h was -13.6%.
As for `CC[C@H]1N(Cc2ccc(OC)cc2)CCC[C@]12CCC(=O)N2C`, the figure is -13%; as for `O=C(NCC1CC1)C1CCC2(CCN(C(=O)c3ccco3)CC2)O1` (centres undefined), -15.5%; as for `CC[C@H]1N(Cc2ccco2)CCC[C@]12CCC(=O)N2C`, -15.5%.
The value for `C[C@@H]1CN(C(=O)c2ccccc2F)C[C@]12CCN(CCN(C)C)C2=O` was -13.1%; that for `Cc1cc(C)cc(C(=O)N2CCCC3(CCCC(=O)N3C)C2)c1` (centres undefined) was -14.4%.
As for `O=C(CC1CC1)N1CCCC2(CCC(=O)N2CC2CC2)CC1` (centres undefined), the figure is -8.2%; as for `Cc1noc(C)c1CN1CCCC2(CCN(C(=O)N3CCOCC3)C2)C1` (centres undefined), -8.84%; as for `Cc1noc(C)c1CN1CCCC2(CCN(C(=O)C3CC3)C2)C1` (centres undefined), -11.8%.
With `Cc1nc(CN2CCC3(CC2)NC(=O)CC3c2cccnc2)cs1` (centres undefined), the cytotoxicity at 70.5 h was -8.17%.
The value for `O=C1COC2(CCN(Cc3ccco3)CC2)CN1Cc1cccnc1` was -7.11%.
With `CCC(=O)N1CC[C@H](O)[C@@H]1Cc1ccccc1`, the cytotoxicity at 70.5 h is -9.02%.
Consider `O=C([C@H]1CCCO1)N1CC[C@@H](O)[C@@H]1Cc1ccccc1`, for which the cytotoxicity at 70.5 h is -8.36%.
The value for `COCCN1C(=O)CCC12CCN(C(=O)CNC(C)=O)CC2` was -8.47%.
With `CCN1CC2(CCCCN2C(=O)c2ccsc2)CC1=O` (centres undefined), the cytotoxicity at 70.5 h stood at 2.62%.
The value for `O=C1CC2(CCCCN2C(=O)c2ccccc2)CN1CC1CC1` (centres undefined) was 4.75%.
As for `CC(=O)N1CCc2nc(N3CCCC3)nc(C)c2C1`, the figure is -0.643%.
The value for `Cc1nc(N2CCOCC2)nc2c1CN(C(=O)C(C)C)CC2` was 4.55%; that for `Cc1nc(N2CCCC2)nc2c1CCN(C(=O)N1CCCC1)CC2` was -8.89%.
In the case of `Cc1nc(N2CCCC2)nc2c1CN(C(=O)NC(C)C)CC2`, the cytotoxicity at 70.5 h is -3.45%.
The value for `CN(CC1CC1)c1ccc2ccc(C(=O)NCCc3ccccc3)cn12` was -12.6%; that for `c1cc(-c2ccc3c(c2)CCC32CCNCC2)ccn1` was 26.1%.
The value for `COCC(=O)N1CCc2nc(C(=O)N(C)C)sc2CC1` was 27.3%; that for `Cc1occc1C(=O)N1CCCC2(CCN(c3ccccc3)C2=O)C1` (centres undefined) was 12.9%; that for `CCC(CC)C(=O)N1CCN(C)c2ncccc2C1` was -2.64%.
As for `CO[C@H]1CN(Cc2ccccc2F)[C@@H]2CCCO[C@H]12`, the figure is -1.13%; as for `O=C(c1ccco1)N1CCCC2(CCN(CCN3CCCC3)C2=O)C1` (centres undefined), -3.97%; as for `O=C(Cc1cccnc1)N1CCC2(CCN(C3CCOC3)CC2)C1` (centres undefined), 20.9%.
With `CC(=O)N1CC2(CCNCC2)c2cc(Cl)ccc21`, the cytotoxicity at 70.5 h was -6.66%.
As for `Cn1cc(CN2CCc3c(CNC(=O)C4CC4)cncc3C2)cn1`, the figure is -1.11%; as for `CC(=O)N1[C@H](CN(C)C)C[C@@H]2CN(C(=O)c3occc3C)CC[C@@H]21`, -3.81%; as for `O=C(NC1CC1)C1=CC2(CCN(CC3CC3)CC2)c2ccccc21`, -4.67%.
As for `CCO[C@H]1CO[C@@]2(CCN(Cc3ccc4c(c3)OCO4)C2)C1`, the figure is -9.21%; as for `CC(=O)N1CCC2(CC1)C(=O)N(CC1CCN(C)CC1)c1ccccc12`, -8.7%; as for `CC(=O)N1[C@H](CN(C)C)C[C@@H]2CN(C(=O)c3ccno3)CC[C@@H]21`, -9.81%.
The value for `CNC(=O)CN1CCCC12CCN(C(=O)c1ccoc1)CC2` was -11.1%; that for `O=C1C[C@H]2[C@@H](CCN2C(=O)Cc2cccs2)N1Cc1ccncc1` was 27.8%; that for `CCN1CCOCC2(CCCN(C(=O)c3ccccc3F)C2)C1` (centres undefined) was 8.58%.
Regarding `CCCC(=O)N1C[C@@H]2CCN(c3cnccn3)C[C@@H]2C1`, the cytotoxicity at 70.5 h was determined as 8.32%.
The value for `O=C1N(CC2CC2)CCC12CCN(Cc1ccoc1)CC2` was -8.87%.
Consider `Cc1oncc1C(=O)N1CCC2(CC1)CC(N1CCOCC1)C2`, for which the cytotoxicity at 70.5 h is -11.3%.
As for `CC(=O)N1[C@H](CN(C)C)C[C@@H]2CN(C(=O)Cc3cccs3)CC[C@@H]21`, the figure is -21.3%.
The value for `O=C(c1cccnc1)N1CCCC2(COCCN(c3ccccc3)C2)C1` (centres undefined) was -16%; that for `O=C(CC1CC1)N1C[C@@H]2CCN(c3cccnc3)C[C@@H]2C1` was -11.6%; that for `CC[C@@H]1N(Cc2nccs2)CCC[C@]12CCC(=O)N2C` was 9.06%.
On to `CCN1CCOCC2(CCCN(C(=O)c3ccncc3F)C2)C1` (centres undefined), for which the cytotoxicity at 70.5 h was -3.01%.
As for `O=C(C1CCCCC1)N1C[C@@H]2CCN(c3cnccn3)C[C@@H]2C1`, the figure is -6.4%; as for `CCN1CCOCC2(CCCN(C(=O)c3conc3C)C2)C1` (centres undefined), -1.18%.
As for `C[C@@H]1CN(S(C)(=O)=O)C[C@]12CCN(Cc1cccnc1)C2=O`, the figure is 14.9%; as for `COCCN1CCC2(CCN(c3ncccn3)CC2)C1=O`, 16.9%.
In the case of `Cc1ccc(CN2CCC3(CC2)NC(=O)CC3c2ccccc2)s1` (centres undefined), the cytotoxicity at 70.5 h was -6.55%.
As for `CC(=O)N1CCN(Cc2ccc(C)o2)CC2(CC(=O)N(C)C2)C1` (centres undefined), the figure is -4.13%; as for `O=C(C1CCC1)N1CCC2(CCCN2CC2CC2)CC1`, -0.744%.
As for `COc1cccc(CN2CCCC3(CCN(C(=O)N4CCCC4)C3)C2)c1` (centres undefined), the figure is -7.71%; as for `CC(=O)N1[C@@H](C(=O)NCC2CC2)C[C@@H]2CN(Cc3nccs3)C[C@@H]21`, -9.23%.
The value for `Cc1cccc(CN2CCC3(CC2)NC(=O)CC3c2ccccc2)n1` (centres undefined) was -7.81%; that for `O=C1CC(c2ccccc2)C2(CCN(Cc3nccs3)CC2)N1` (centres undefined) was -9.09%; that for `CN1CCOCC12CCN(C(=O)C1CCC1)CC2` was 1.58%.
As for `Cc1cccc(CN2C(=O)CCC23CCN(C(=O)c2ccco2)CC3)n1`, the cytotoxicity at 70.5 h was 0.736%.
As for `Cc1cccc(CN2C(=O)CCC23CCN(C(=O)N2CCCC2)CC3)n1`, the figure is 0.698%.
The value for `CN1CCN(C(=O)CCc2ccccc2)Cc2cccnc21` was 16.1%.
The value for `COCC1CN(C(=O)Cc2ccccn2)Cc2ncnn2C1` (centres undefined) was 16.8%; that for `O=C1[C@H]2CN(Cc3ccccc3)C[C@H]2CN1c1cncnc1` was -2.62%.
On to `Cc1occc1C(=O)N1CCC2(CCN(Cc3cccs3)C2)CC1`, for which the cytotoxicity at 70.5 h was -1.13%.
As for `Cc1ccc(CN2Cc3nnn(C)c3C(COCC3CC3)C2)o1` (centres undefined), the figure is -5.52%.
The value for `O=C1[C@H]2CN(Cc3ccco3)C[C@H]2CN1c1cncnc1` was -5.56%.
Regarding `Cc1occc1C(=O)N1CCC2(CC1)CN(Cc1nccs1)CCO2`, the cytotoxicity at 70.5 h was determined as 7.01%.
As for `CN1[C@@H](C(=O)NCC2CC2)C[C@@H]2CN(Cc3ccsc3)C[C@@H]21`, the figure is 11.3%; as for `COc1ccc(CN2CC[C@H]3[C@H]2CC(=O)N3Cc2cccc(C)n2)cc1`, -7.27%; as for `Cc1noc(C)c1CN1C[C@@H]2C[C@H](C(=O)NCC3CC3)N(C)[C@@H]2C1`, -11.9%.
As for `Cc1cccc(CN2C(=O)C[C@H]3[C@@H]2CCN3Cc2ccco2)n1`, the figure is -11.7%; as for `CC[C@@H]1N(Cc2cccnc2)CCC[C@]12CCC(=O)N2C`, -12.1%.
In the case of `CC(C)NC(=O)CC1COC2(CCN(Cc3cccnc3)CC2)C1` (centres undefined), the cytotoxicity at 70.5 h was -12.2%.
The value for `CC[C@@H]1N(Cc2ccncc2)CCC[C@]12CCC(=O)N2C` was -20.1%; that for `Cc1cccc(CN2C(=O)C[C@H]3[C@@H]2CCN3Cc2ccc(F)cc2)n1` was -2.72%; that for `CN(C)CCN1CCCC12CCN(C(=O)c1ccoc1)CC2` was -9.15%.
The value for `Cc1noc(C)c1CN1C[C@H](C)[C@]2(CCN(Cc3cccnc3)C2=O)C1` was -8.9%; that for `CN(C)CCN1CCCC12CCN(C(=O)c1ccncc1)CC2` was -7.81%; that for `COc1cc(C(=O)N2CC3(CCNCC3)c3cc(Cl)ccc32)ccn1` was -6.87%.
The value for `Cc1cccc(CN2CCCC3(CCC(=O)N3CCN(C)C)CC2)n1` (centres undefined) was -3.65%; that for `Cc1nc(CN2C[C@H]3C[C@H](C(=O)NCC4CC4)N(C)[C@H]3C2)cs1` was 9.54%.
With `COc1ncccc1CN1C[C@H]2C[C@@H](C(=O)NCC3CC3)N(C)[C@H]2C1`, the cytotoxicity at 70.5 h is -12.9%.
As for `C[C@@H]1CN(Cc2cccnc2)C[C@]12CCN(CCN1CCCC1)C2=O`, the figure is -4.97%.

For the origin of these results see ChEMBL document CHEMBL3507680, “University of Dundee, Gates Library screen for HepG2 cell viability”.
